Experimental data from ChEMBL document CHEMBL1201862, “PubChem BioAssay data set” (2004).
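All cell lines were grown in 96-well plates and treated with compound for 48 hours. Here, GI50 denotes the concentration required for 50% inhibition of growth.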 Calls of active or inactive are those of the source. No stated cut-off is given here; in the data, active = GI50 up to about 1.1 µM and inactive = higher.

Tests used:
Test in all cases: DTP human tumour cell line panel, 48 h
IGROV-1 = system: IGROV-1
786-0 = system: 786-0
ACHN = system: ACHN
OVCAR-8 = system: OVCAR-8
OVCAR-5 = system: OVCAR-5
SF-539 = system: SF-539
CCRF-CEM = system: CCRF-CEM
EKVX = system: EKVX
SK-MEL-28 = system: SK-MEL-28
UACC-257 = system: UACC-257
OVCAR-3 = system: OVCAR-3
MOLT-4 = system: MOLT-4
NCI-H23 = system: NCI-H23
LOX IMVI = system: LOX IMVI
NCI-H460 = system: NCI-H460
NCI-H226 = system: NCI-H226
NCI-H522 = system: NCI-H522

Measured: GI50

N#CC1C[C@@H]2CC3(CCC2CN1C(=O)c1ccccc1)OCCO3 (stereo partly specified)
inactive: IGROV-1 > 100 µM | 786-0 > 100 µM | ACHN > 100 µM | OVCAR-8 > 100 µM | OVCAR-5 > 100 µM | SF-539 > 100 µM | CCRF-CEM > 100 µM | EKVX > 100 µM | SK-MEL-28 > 100 µM | UACC-257 > 100 µM | OVCAR-3 > 100 µM | MOLT-4 > 100 µM | NCI-H23 > 100 µM | LOX IMVI > 100 µM | NCI-H460 > 100 µM

COc1ccccc1C1c2cc3c(cc2OC(O)(CO)C1C(=O)O)OCO3.COc1ccccc1C1c2cc3c(cc2OC2(O)COC(=O)C12)OCO3 (stereo unspecified)
inactive: IGROV-1 > 100 µM | 786-0 > 100 µM | ACHN > 100 µM | OVCAR-8 > 100 µM | OVCAR-5 > 100 µM | SF-539 > 100 µM | CCRF-CEM 92.7 µM | EKVX > 100 µM | SK-MEL-28 > 100 µM | UACC-257 > 100 µM | OVCAR-3 > 100 µM | MOLT-4 70 µM | NCI-H23 > 100 µM | LOX IMVI > 100 µM | NCI-H460 > 100 µM | NCI-H226 > 100 µM

Cc1cccc(C)c1NC(=O)CCCC(=O)C1CCC/C1=N\NC(=O)C(=O)NN (stereo unspecified)
inactive: 786-0 > 100 µM | ACHN > 100 µM | OVCAR-8 > 100 µM | OVCAR-5 > 100 µM | SF-539 > 100 µM | CCRF-CEM > 100 µM | EKVX > 100 µM | SK-MEL-28 > 100 µM | UACC-257 > 100 µM | OVCAR-3 > 100 µM | MOLT-4 > 100 µM | NCI-H23 > 100 µM | LOX IMVI > 100 µM | NCI-H460 > 100 µM | NCI-H226 > 100 µM

NC1=NNC(=O)c2nnc3c(C(=O)O)cnn3c2S1
inactive: IGROV-1 > 100 µM | 786-0 > 100 µM | OVCAR-8 > 100 µM | OVCAR-5 > 100 µM | NCI-H522 > 100 µM | SF-539 > 100 µM | CCRF-CEM 10 µM | EKVX > 100 µM | SK-MEL-28 > 100 µM | OVCAR-3 > 100 µM | MOLT-4 > 100 µM | NCI-H23 > 100 µM

CC(=O)Nc1ccc(/C=C2\N=C(c3ccccc3)OC2=O)cc1
inactive: IGROV-1 > 31.6 µM | 786-0 > 100 µM | ACHN > 100 µM | OVCAR-8 6.32 µM | OVCAR-5 > 100 µM | CCRF-CEM 33.1 µM | EKVX > 100 µM | SK-MEL-28 > 100 µM | UACC-257 > 100 µM | MOLT-4 87.5 µM | NCI-H23 > 100 µM | LOX IMVI 80.2 µM | NCI-H460 68.5 µM | NCI-H226 > 100 µM

CCOc1cc2c(cnc3c4cc(OC)c(OC)cc4ccc23)cc1OC
inactive: IGROV-1 > 100 µM | 786-0 > 100 µM | ACHN > 100 µM | OVCAR-8 > 100 µM | OVCAR-5 > 100 µM | NCI-H522 > 100 µM | SF-539 > 100 µM | CCRF-CEM > 100 µM | EKVX > 100 µM | SK-MEL-28 > 100 µM | UACC-257 > 100 µM | OVCAR-3 > 100 µM | MOLT-4 > 100 µM | NCI-H23 > 100 µM | NCI-H460 > 100 µM

O=C1CCSC2=C1SCc1sccc12
inactive: IGROV-1 > 100 µM | 786-0 > 100 µM | OVCAR-8 > 100 µM | OVCAR-5 > 100 µM | NCI-H522 > 100 µM | CCRF-CEM > 100 µM | EKVX 93.5 µM | SK-MEL-28 > 100 µM | UACC-257 > 100 µM | OVCAR-3 > 100 µM | MOLT-4 > 100 µM | NCI-H23 > 100 µM | LOX IMVI > 100 µM | NCI-H460 > 100 µM
